Measurements published in BindingDB's records for doi:10.1021/jm990537r (Cocensys, 2000).

Target: Glutamate receptor ionotropic NMDA 2B (Rattus norvegicus) (UniProt Q00960)
Test: In vitro inhibition of NMDA responses at NR1A/2B receptor expressed in Xenopus oocytes

Sequence of Glutamate receptor ionotropic NMDA 2B (Rattus norvegicus) (Q00960 whole entry, looked up): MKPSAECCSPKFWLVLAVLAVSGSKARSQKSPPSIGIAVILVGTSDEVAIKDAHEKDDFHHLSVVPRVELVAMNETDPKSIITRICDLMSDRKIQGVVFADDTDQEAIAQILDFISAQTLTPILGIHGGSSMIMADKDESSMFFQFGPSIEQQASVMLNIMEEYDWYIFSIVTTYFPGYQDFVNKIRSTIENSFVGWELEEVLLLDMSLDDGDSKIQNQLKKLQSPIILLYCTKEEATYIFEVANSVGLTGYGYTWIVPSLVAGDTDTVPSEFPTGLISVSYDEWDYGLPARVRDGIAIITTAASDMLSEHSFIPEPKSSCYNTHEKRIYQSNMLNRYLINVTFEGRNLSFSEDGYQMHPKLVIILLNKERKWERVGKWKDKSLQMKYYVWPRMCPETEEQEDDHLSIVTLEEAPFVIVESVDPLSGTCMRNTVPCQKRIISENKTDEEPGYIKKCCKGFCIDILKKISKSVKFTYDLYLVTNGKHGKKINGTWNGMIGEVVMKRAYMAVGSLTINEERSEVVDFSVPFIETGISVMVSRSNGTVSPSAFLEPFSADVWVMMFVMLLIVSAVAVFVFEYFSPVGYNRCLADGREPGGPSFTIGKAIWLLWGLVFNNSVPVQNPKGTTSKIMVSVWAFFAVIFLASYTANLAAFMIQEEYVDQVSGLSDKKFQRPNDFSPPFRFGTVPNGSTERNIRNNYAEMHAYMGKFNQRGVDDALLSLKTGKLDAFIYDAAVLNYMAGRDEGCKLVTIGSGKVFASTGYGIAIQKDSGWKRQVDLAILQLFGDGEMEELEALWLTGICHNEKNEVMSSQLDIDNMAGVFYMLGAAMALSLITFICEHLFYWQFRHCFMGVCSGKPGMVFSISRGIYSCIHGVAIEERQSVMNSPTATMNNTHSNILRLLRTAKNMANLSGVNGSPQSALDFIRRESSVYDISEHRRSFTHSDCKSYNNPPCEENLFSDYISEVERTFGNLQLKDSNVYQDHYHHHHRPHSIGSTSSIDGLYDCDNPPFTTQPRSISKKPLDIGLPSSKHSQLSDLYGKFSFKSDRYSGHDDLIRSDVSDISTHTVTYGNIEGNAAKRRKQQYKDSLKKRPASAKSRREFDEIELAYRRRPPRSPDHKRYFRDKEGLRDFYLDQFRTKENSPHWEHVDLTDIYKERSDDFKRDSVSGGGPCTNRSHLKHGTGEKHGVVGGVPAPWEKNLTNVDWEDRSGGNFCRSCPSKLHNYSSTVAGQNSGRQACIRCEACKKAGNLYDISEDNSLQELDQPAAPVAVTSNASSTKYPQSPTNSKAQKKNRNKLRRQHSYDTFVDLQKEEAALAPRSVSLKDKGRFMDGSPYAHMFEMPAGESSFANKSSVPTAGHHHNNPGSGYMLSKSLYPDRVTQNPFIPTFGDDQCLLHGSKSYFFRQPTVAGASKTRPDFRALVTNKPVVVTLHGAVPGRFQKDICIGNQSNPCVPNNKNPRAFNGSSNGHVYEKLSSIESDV

IC50: 25 nM
Compound: Oc1ccc(OCCN2CCC(Cc3ccccc3)CC2)cc1 [4-[2-(4-Benzyl-piperidin-1-yl)-ethoxy]-phenol]
